Assay results as given in article PMC4413526 (AIDS Research and Therapy, 2014).
Like-named read-outs stand apart in the source and are kept apart here. Marks after values point to notes of the source that are not given here.

Legend:
CYP isozymes = settings: cited from earlier work
[1] = HIV-1-infected patients; cited from earlier work
HIV = settings: cited from earlier work
wild-type virus = settings: cited from earlier work
[2] = Pharmacokinetic substudy (intensive sampling, non-compartmental analysis); settings: steady state, plasma, substudy n = 60, darunavir 800 mg + cobicistat 150 mg once daily plus N[t]RTIs
Method: The pharmacokinetic substudy included intensive pharmacokinetic sampling over 24 hours and was performed in a subset of patients (target n =48 evaluable) at selected study sites.
For the whole study population, sparse blood samples for analysis of study drug plasma concentrations were collected over 24 hours at Weeks 2, 4, 8, 12, 16, 24, 36 and 48. For the pharmacokinetic substudy, plasma samples were collected predose, 1, 2, 3, 3.5, 4, 4.5, 5, 6, 8, 10, 12 and 24 hours post-dose at a visit between Weeks 2 and 8.
For the pharmacokinetic substudy, steady-state pharmacokinetic parameters (Cmax, Cmin and AUC24h) were obtained using non-compartmental analysis (WinNonlin® software version 6.2, Pharsight Corporation, Mountain View, CA, USA). The intensive pharmacokinetic substudy data was used to revise an existing 2-compartment population pharmacokinetic model with first-order absorption.

[3] = Population pharmacokinetics of darunavir (Bayesian feedback analysis); settings: human, in vivo; for AUC(0-t): read-out: Population pharmacokinetic-derived AUC24h, mean (SD)
[4] = test system: plasma HIV-1 RNA (viral load); settings: treatment-naïve patients in ARTEMIS, TLOVR, ITT analysis; cited from earlier work
[5] = test system: HIV-1 protease and reverse transcriptase; assay: Development of resistance (genotype/phenotype testing, PhenoSense GT); settings: two patients (one treatment-experienced, one treatment-naïve) receiving emtricitabine

CC(C)c1nc(CN(C)C(=O)N[C@@H](CCN2CCOCC2)C(=O)N[C@H](CC[C@H](Cc2ccccc2)NC(=O)OCc2cncs2)Cc2ccccc2)cs1 [Cobicistat, cobicistat]
Induction of CYP isozymes (CYP isozymes): does not induce CYP isozymes | AUCtau, historical data [1]: 8.3 µg·h/mL | Cmax, historical data [1]: 1100 ng/mL | Antiviral activity (HIV): no antiviral activity

CC(C)CN(C[C@@H](O)[C@H](Cc1ccccc1)NC(=O)O[C@H]1CO[C@H]2OCC[C@H]21)S(=O)(=O)c1ccc(N)cc1 [Darunavir, darunavir]
protein-binding adjusted 50% effective concentration (wild-type virus): 55 ng/mL | Ctau [mean (SD)] [2]: 1311 (969)* ng/ml | AUC(0-t) ([3]; 17 treatment-experienced patients, with cobicistat): 120 µg·h/mL | concentration at 0 h ([3]; 17 treatment-experienced patients, with cobicistat, read-out: Population pharmacokinetic-derived C0h, mean (SD)): 2920 ng/mL | AUC(0-t) ([3]; 281 treatment-naïve patients, with cobicistat): 101 µg·h/mL | concentration at 0 h ([3]; 281 treatment-naïve patients, with cobicistat, read-out: Population pharmacokinetic-derived C0h, mean (SD)): 2100 ng/mL | AUC(0-t) ([3]; Week 48, overall n = 298, with cobicistat): 102 µg·h/mL | concentration at 0 h ([3]; Week 48, overall n = 298, with cobicistat, read-out: Population pharmacokinetic-derived trough plasma concentration (C0h), mean (SD)): 2150 ng/mL

darunavir/ritonavir
Week 48 virologic response rate [4]: 84%

Nc1ccn([C@@H]2CS[C@H](CO)O2)c(=O)n1 [lamivudine]
Phenotypic resistance associated with emerging M184V N[t]RTI RAM [5]: associated with phenotypic resistance

Nc1nc(=O)n([C@@H]2CS[C@H](CO)O2)cc1F [Emtricitabine, emtricitabine]
Phenotypic resistance associated with emerging M184V N[t]RTI RAM [5]: associated with phenotypic resistance
